Measurements published in ChEMBL document CHEMBL1149836, “Antifungal metabolites from the plant endophytic fungus Pestalotiopsis foedan” (2008).

Tests used:
Type in all cases: functional
Candida albicans = experiment: Antifungal activity against Candida albicans ATCC 10231 at 100 ug/ml after 48 hrs by agar diffusion assay; settings: ATCC 10231, 48 h, read-out: IZ
Geotrichum candidum = experiment: Antifungal activity against Geotrichum candidum AS2.498 at 100 ug/ml after 48 hrs by agar diffusion assay; settings: read-out: IZ
Aspergillus fumigatus = experiment: Antifungal activity against Aspergillus fumigatus ATCC 10894 at 100 ug/ml after 48 hrs by agar diffusion assay; settings: ATCC 10894, 48 h, read-out: IZ

Compound	zone of inhibition at 100 µg/mL (Candida albicans) [mm]	zone of inhibition at 100 µg/mL (Geotrichum candidum) [mm]	zone of inhibition at 100 µg/mL (Aspergillus fumigatus) [mm]
OC(Cn1cncn1)(Cn1cncn1)c1ccc(F)cc1F [FLUCONAZOLE]	18	18	18
C[C@H]1CCC[C@@]2(CC3=C(CO2)C(=O)[C@](C)(O)[C@@H](O)C3)O1 [PESTAFOLIDE A]			10
Cc1c(O)cc2c(c1O)C(=O)O[C@@H]2[C@H](C)O [PESTAPHTHALIDE A]	13		
Cc1c(O)cc2c(c1O)C(=O)O[C@H]2[C@H](C)O [PESTAPHTHALIDE B]		11	
